Test results from patent US20090170932A1, “DISINFECTANT COMPOSITIONS, METHODS AND SYSTEMS” (Tyco Healthcare Group LP, priority 2007, published 2009).
Values joined by “and” are separate entries in the source; they are usually repeats but may differ in a detail not shown here. Equal values may be shown once.

What was measured:
[1] = tested on: Staphylococcus aureus (organism # 25923); experiment: pH experiments: MBC (minimum bactericidal concentration); assay type: cell-based; details: S. aureus
Protocol: (§1) In order to determine MIC and MBC (minimum bactericidal concentration) a National Committee on Clinical Laboratory Standards (NCCLS) micro-dilution procedure was followed. […] In the current protocol 100 μL of MHB was mixed with 90 μL of formulation and 10 μL of log 8 organism or the highest achievable concentration. The concentration of the formulation was adjusted to obtain the required concentration in the final solution. The mixture was incubated at 37 degree C. for 16-24 hrs. After 16-24 hours the absorbance value was read at 600 nm. The obtained data was corrected by subtracting the appropriate blanks. Finally, the wells having an absorbance≧0.1 were marked + and <0.1 were marked −. The + symbol indicated growth while − symbol indicates no growth. […] Staphylococcus aureus (organism # 25923) was obtained from ATCC. […] N-acetyl cysteine (NAC) was used (Acros, Catalogue # 160280250, Lot # A0229576). A 4 wt % NAC solution in water was prepared at a pH of 4. A 4 wt % NAC solution in water was prepared at a pH of 6. […] These solutions were then serially diluted as necessary to obtain the required concentrations. […]

[2] = cited from earlier work
[3] = tested on: Staphylococcus aureus (organism # 25923); experiment: pH experiments: MIC at adjusted pH, NCCLS micro-dilution; assay type: cell-based; details: S. aureus
Protocol: as §1

[4] = tested on: blood coagulation (clotting); experiment: Prothrombin Time (PT) Assay, INR; assay type: biochemical; details: single agent, within the tested range
Protocol: Experiments were conducted to assess the anticoagulant capacities of NAC, Vitamin C and combinations of NAC and Vitamin C via a Prothrombin Time (PT) Assay. A PT assay (TM-4339-063) was conducted using a Coagulation Analyzer to obtain PT instead of manually recording the PT. […] INR (International Normalized Ratio) is a system established by the World Health Organization (WHO) and the International Committee on Thrombosis and Hemostasis for reporting the results of blood coagulation (clotting) tests. INR is calculated as: INR=([…] sample/PTnormal control)^ISI ISI (International Sensitivity Index) indicates the sensitivity of individual thromboplastin. […] All the PTs greater than 3× the […] 1 (normal control) were replaced with 31 seconds.

Osmolarity of solutions = assay type: physicochemical; details: 4 wt % (w/v) of each component in solution
Excerpt: Formulation and production of disinfectant compositions of the present disclosure are generally straightforward. […] The disinfectant solution may then be sterilized using conventional means, such as filtration and/or ultrafiltration, and other means. […] The solutions are preferably formulated using USP materials.

[5] = in vivo; cited from earlier work
blood coagulation = details: patients; cited publications; cited from earlier work
P. aeruginosa = experiment: Checkerboard Titration (FIC index); assay type: cell-based; details: for FIC of the single component (FIC-NAC, FIC-VC): P. aeruginosa, MIC in combination / MIC alone
Protocol: (§2) The method used was a NCCLS micro-dilution procedure. […] The following concentrations were tested (for S. aureus see FIG. 9 and for P. aeruginosa see FIG. 7 for combinations at a pH<4): [table] Fraction Inhibitory Concentration (FIC) is defined as the MIC of the compound in combination divided by the MIC of the compound alone. If the FIC index is ≦0.5, the combination is interpreted to be synergistic; <1 but >0.5-as partially synergistic; =1 as additive; >1 but <4 as indifferent; and ≧4 as antagonistic.

S. aureus = experiment: Checkerboard Titration (FIC index), pH<4; assay type: cell-based; details: for FIC of the single component (FIC-NAC, FIC-VC): S. aureus, MIC in combination / MIC alone
Protocol: as §2

[6] = tested on: Candida Albicans (Organism # 10231); experiment: MIC test, NCCLS micro-dilution; assay type: cell-based; details: C. albicans; pH not adjusted
Protocol: (§3) The minimum concentration of a composition required to inhibit growth is known as the minimum inhibitory concentration (MIC). In order to determine MIC a National Committee on Clinical Laboratory Standards (NCCLS) micro-dilution procedure was followed. […] In the current protocol 100 μL of MHB was mixed with 90 μL of formulation and 10 μL of log 8 organism or the highest achievable concentration. The concentration of the formulation was adjusted to obtain the required concentration in the final solution. The mixture was incubated at 37 degree C. for 16-24 hrs. After 16-24 hours the absorbance value was read at 600 nm. The obtained data was corrected by subtracting the appropriate blanks. Finally, the wells having an absorbance≧0.1 were marked + and <0.1 were marked −. The + symbol indicated growth while − symbol indicates no growth. […] In cases where the positive growth controls corrected absorbance is lower than 0.5, an alternate rule is utilized which is “absorbance<than 20% of positive growth control is marked as − growth, while absorbance≧than 20% of positive growth control is marked as + growth”. Staphylococcus aureus (organism # 25923), Pseudomonas aeruginosa (Organism # 27853) and Candida Albicans (Organism # 10231) was obtained from ATCC. […] N-acetyl cysteine (NAC) was used (Acros, Catalogue # 160280250, Lot # A0229576). A 8 wt % NAC solution in water was prepared. […]

[7] = tested on: Staphylococcus aureus (organism # 25923); experiment: MIC test, NCCLS micro-dilution; assay type: cell-based; details: S. aureus; pH not adjusted (pH < 4); listed as VC
Protocol: as §3

[8] = pH of 6, 2.0 wt % starting point
[9] = pH=6, 2.0% (w/v) starting point

Row | MIC ([3]; pH of 4) | MIC [3, 8] | MIC ([3]; pH=4) | MIC [3, 9] | osmolarity (Osmolarity of solutions) | MIC-NAC / MIC-VC (MIC of the component in combination with the other) (P. aeruginosa; P. aeruginosa in MHB) | MIC-NAC / MIC-VC (MIC of the component in combination with the other) (S. aureus; S. aureus in MHB) | MIC ([3]; pH of 6, 2.0 wt % starting point, listed as VC) | MIC [6] | MIC [7] | Structure (SMILES) | MBC ([1]; pH of 4) | MBC ([1]; pH=4) | Solubility in chloroform and ether [2] | Change of INR with increase in concentration [4] | dose shown to be safe for administration to humans [5] | Anti-coagulant effect (literature) (blood coagulation) | FIC of the single component (FIC-NAC, FIC-VC) (P. aeruginosa) | FIC of the single component (FIC-NAC, FIC-VC) (S. aureus)
1 | 2.0 wt % and 2 wt % | >2 wt % | 2.0 % (w/v) | > 2.0 % (w/v) | 237 mOsm/Kg | 0.25 % (w/v) | 0.25 % (w/v) |  |  |  | CC(=O)N[C@@H](CS)C(=O)O [NAC, N-acetyl-L-cysteine] | 2.0 wt % | 2.0 % (w/v) | practically insoluble | increase in INR | 1200 mg/day | some anti-coagulant effect | 0.35 | 0.4
2 | 0.5 wt % | > 2.0 wt % | 0.5 % (w/v) | > 2.0 % (w/v) | 223 mOsm/Kg |  |  | >2 wt % | > 8 wt % | 0.25 wt % | O=C1O[C@H]([C@@H](O)CO)C(O)=C1O [Vitamin C, L-ascorbic acid] | 1.0 wt % | 1.0 % (w/v) |  | no significant increase in INR |  | has not been identified as an effective anticoagulant when compared with heparin | 0.35 | 0.4
